Source: ChEMBL document CHEMBL1201862, “PubChem BioAssay data set” (2004)
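All cell lines were grown in 96-well plates and treated with compound for 48 hours. GI50 marks 50% less growth.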 Active and inactive are the calls of the source. No stated cut-off is given here; in the data, active = GI50 up to about 1.1 µM and inactive = higher.

Experiments:
Test in all cases: NCI-60 cell line screen, 48 h
HOP-18 = test system: HOP-18
XF498 = test system: XF498
DMS-273 = test system: DMS-273
M19-MEL = test system: M19-MEL
SNB-78 = test system: SNB-78
DLD-1 = test system: DLD-1
LXFL 529 = test system: LXFL 529
RXF 631 = test system: RXF 631
DMS-114 = test system: DMS-114

Row | Structure (SMILES) | GI50 (HOP-18) | GI50 (XF498) | GI50 (DMS-273) | GI50 (M19-MEL) | GI50 (SNB-78) | GI50 (DLD-1) | GI50 (LXFL 529) | GI50 (RXF 631) | GI50 (DMS-114)
1 | CC(C)C(=O)/C=C/c1ccccc1 | > 100 µM (inactive) | > 100 µM (inactive) | 65.2 µM (inactive) | > 100 µM (inactive) | 33.1 µM (inactive) | 84.7 µM (inactive) | > 100 µM (inactive) |  | 
2 | CCOC(=O)/C(=C/c1ccc(C#N)cc1)N(CC)CC | 63 µM (inactive) | > 100 µM (inactive) |  | > 100 µM (inactive) | > 100 µM (inactive) | > 100 µM (inactive) | > 100 µM (inactive) | > 100 µM (inactive) | > 100 µM (inactive)
3 | CC(=O)N1CCC(=O)/C(=C/c2ccccc2)C1 | 23.2 µM (inactive) | 64 µM (inactive) | 33 µM (inactive) | 20.4 µM (inactive) | 38.5 µM (inactive) | 24.1 µM (inactive) | 21.9 µM (inactive) | 28.9 µM (inactive) | 15.8 µM (inactive)
4 | Cc1cc(Cl)ccc1NC(=O)C(=O)C(C(=O)c1ccccc1)C1OC(=O)c2ccccc21 (stereo not drawn) | > 100 µM (inactive) | > 100 µM (inactive) | > 100 µM (inactive) | > 100 µM (inactive) | > 100 µM (inactive) | > 100 µM (inactive) | > 100 µM (inactive) |  | > 100 µM (inactive)
5 | O=C(/N=N/C(=O)OCc1ccccc1)OCc1ccccc1 | > 100 µM (inactive) | > 100 µM (inactive) | 91.6 µM (inactive) | > 100 µM (inactive) | > 100 µM (inactive) |  | 68.2 µM (inactive) | > 100 µM (inactive) | 34.4 µM (inactive)
6 | N#C/C(=C\c1ccc(O)cc1O)C(N)=O |  | 34.2 µM (inactive) | > 100 µM (inactive) | > 100 µM (inactive) | > 100 µM (inactive) | 67.1 µM (inactive) | > 100 µM (inactive) |  | 
7 | CC1=C(C(=O)Nc2ccccc2)C(c2ccc(Cl)c(Cl)c2)C(C(=O)Nc2ccccc2)=C(C)N1 |  | 16.6 µM (inactive) | 13 µM (inactive) | 12.9 µM (inactive) | 17.7 µM (inactive) | 12.1 µM (inactive) | 12.9 µM (inactive) | 12.4 µM (inactive) | 11.2 µM (inactive)
8 | COC(=O)/C=C/C1C(C(=O)OC)C2(C(=O)OC)CCC1(C(=O)OC)N2 (stereo not drawn) | 96.8 µM (inactive) | > 100 µM (inactive) | > 100 µM (inactive) | > 100 µM (inactive) | > 100 µM (inactive) | > 100 µM (inactive) | > 100 µM (inactive) | > 100 µM (inactive) | 
9 | O=C(c1ccc(O)cc1)C1c2c3c(cc(O)c2C(c2ccc(O)cc2)C1c1cc(O)cc(O)c1)OC(c1ccc(O)cc1)C3c1cc2c(cc1O)OC(c1ccc(O)cc1)C2c1cc(O)cc(O)c1 (stereo not drawn) |  |  | > 12.5 µM (inactive) | > 12.5 µM (inactive) |  | > 12.5 µM (inactive) | > 12.5 µM (inactive) |  | > 12.5 µM (inactive)
10 | C=C1C(=O)OC2C1C(OC(=O)/C(C)=C\C)CC1(CO1)C1C(O)C=C(C)C21O (stereo not drawn) | 10.9 µM (inactive) | 12.7 µM (inactive) | 6.46 µM (inactive) | 6.24 µM (inactive) | 9.53 µM (inactive) | 2.33 µM (inactive) | 1.59 µM (inactive) | 3.52 µM (inactive) | 3.19 µM (inactive)
11 | CCCc1ccc(/N=C\c2cc(OC)c(OC)c(OC)c2)cc1 | > 100 µM (inactive) | > 100 µM (inactive) | > 83.4 µM (inactive) | > 100 µM (inactive) | > 100 µM (inactive) | > 75.9 µM (inactive) | 99.3 µM (inactive) |  | 18.7 µM (inactive)
12 | CCCCCCCCNC(=O)SCCCC | 31 µM (inactive) | 13.8 µM (inactive) | 31.4 µM (inactive) | 40.5 µM (inactive) |  | 43.4 µM (inactive) | 38.5 µM (inactive) | 39.1 µM (inactive) | 
13 | COc1ccc2nc(NC(=O)C(=O)C(C#N)c3ccc(Cl)c(Cl)c3)sc2c1 (stereo not drawn) |  | > 100 µM (inactive) | > 100 µM (inactive) | > 100 µM (inactive) | > 100 µM (inactive) | > 100 µM (inactive) | > 100 µM (inactive) | > 100 µM (inactive) | 78.9 µM (inactive)
14 | COC(=O)[C@@H]1Cc2c([nH]c3ccccc23)[C@H](c2ccccc2)N1 | 52.1 µM (inactive) |  | 26.7 µM (inactive) | 41.7 µM (inactive) |  | 35.2 µM (inactive) | 54.5 µM (inactive) |  | 32.2 µM (inactive)
15 | O=c1[nH]c2c3ccccc3ccc2c2cc3c(cc12)OCO3 | 2 µM (inactive) | 84.1 µM (inactive) | 67.1 µM (inactive) | > 100 µM (inactive) | > 100 µM (inactive) | > 100 µM (inactive) | 79.4 µM (inactive) | > 100 µM (inactive) | 
16 | C[C@]12CCc3nn(-c4ccccc4)nc3C1CC[C@@H]1C2CC[C@]2(C)C(=O)CCC12 (stereo partly drawn) | > 100 µM (inactive) |  | > 100 µM (inactive) | > 100 µM (inactive) | > 100 µM (inactive) | 93.3 µM (inactive) | > 100 µM (inactive) |  | > 100 µM (inactive)
17 | Clc1ccc(C2SCc3nc4ccccc4n32)cc1Cl (stereo not drawn) | < 0.01 µM (active) | 12.1 µM (inactive) |  | > 10 µM (inactive) | 12.3 µM (inactive) | 12.6 µM (inactive) | 11.8 µM (inactive) |  | 14.8 µM (inactive)
18 | Nc1c([N+](=O)[O-])nc(Cl)c2nncn12 | > 100 µM (inactive) | > 100 µM (inactive) | 16.5 µM (inactive) | > 100 µM (inactive) | > 100 µM (inactive) | > 58.9 µM (inactive) | > 78.9 µM (inactive) | > 100 µM (inactive) | > 42 µM (inactive)
19 | CC(c1cccc2ccccc12)/[N+]([O-])=C/c1ccccc1 (stereo not drawn) | 36.1 µM (inactive) | > 100 µM (inactive) | > 100 µM (inactive) |  |  | > 100 µM (inactive) | > 100 µM (inactive) | > 100 µM (inactive) | > 100 µM (inactive)
